Experiments:
Assay type in all cases: cell-based
Nav1.7 [1] = target: T1, Nav1.7 (Homo sapiens, UniProt Q15858, V383A); test: whole-cell patch clamp in transfected HEK293T cells
T1 construct: gene SCN9A

Nav1.7 [2] = target: T2, Nav1.7 (Homo sapiens, UniProt Q15858, N1459A); test: as above
T2 construct: gene SCN9A

Nav1.7 [3] = target: T3, Nav1.7 (Homo sapiens, UniProt Q15858); test: cryo-EM structure at […] Å; Kd for the inactivated state calculated from patch-clamp (alpha subunit alone)
T3 construct: gene SCN9A; no beta subunit stated for this line
T3 sequence (Q15858 whole entry): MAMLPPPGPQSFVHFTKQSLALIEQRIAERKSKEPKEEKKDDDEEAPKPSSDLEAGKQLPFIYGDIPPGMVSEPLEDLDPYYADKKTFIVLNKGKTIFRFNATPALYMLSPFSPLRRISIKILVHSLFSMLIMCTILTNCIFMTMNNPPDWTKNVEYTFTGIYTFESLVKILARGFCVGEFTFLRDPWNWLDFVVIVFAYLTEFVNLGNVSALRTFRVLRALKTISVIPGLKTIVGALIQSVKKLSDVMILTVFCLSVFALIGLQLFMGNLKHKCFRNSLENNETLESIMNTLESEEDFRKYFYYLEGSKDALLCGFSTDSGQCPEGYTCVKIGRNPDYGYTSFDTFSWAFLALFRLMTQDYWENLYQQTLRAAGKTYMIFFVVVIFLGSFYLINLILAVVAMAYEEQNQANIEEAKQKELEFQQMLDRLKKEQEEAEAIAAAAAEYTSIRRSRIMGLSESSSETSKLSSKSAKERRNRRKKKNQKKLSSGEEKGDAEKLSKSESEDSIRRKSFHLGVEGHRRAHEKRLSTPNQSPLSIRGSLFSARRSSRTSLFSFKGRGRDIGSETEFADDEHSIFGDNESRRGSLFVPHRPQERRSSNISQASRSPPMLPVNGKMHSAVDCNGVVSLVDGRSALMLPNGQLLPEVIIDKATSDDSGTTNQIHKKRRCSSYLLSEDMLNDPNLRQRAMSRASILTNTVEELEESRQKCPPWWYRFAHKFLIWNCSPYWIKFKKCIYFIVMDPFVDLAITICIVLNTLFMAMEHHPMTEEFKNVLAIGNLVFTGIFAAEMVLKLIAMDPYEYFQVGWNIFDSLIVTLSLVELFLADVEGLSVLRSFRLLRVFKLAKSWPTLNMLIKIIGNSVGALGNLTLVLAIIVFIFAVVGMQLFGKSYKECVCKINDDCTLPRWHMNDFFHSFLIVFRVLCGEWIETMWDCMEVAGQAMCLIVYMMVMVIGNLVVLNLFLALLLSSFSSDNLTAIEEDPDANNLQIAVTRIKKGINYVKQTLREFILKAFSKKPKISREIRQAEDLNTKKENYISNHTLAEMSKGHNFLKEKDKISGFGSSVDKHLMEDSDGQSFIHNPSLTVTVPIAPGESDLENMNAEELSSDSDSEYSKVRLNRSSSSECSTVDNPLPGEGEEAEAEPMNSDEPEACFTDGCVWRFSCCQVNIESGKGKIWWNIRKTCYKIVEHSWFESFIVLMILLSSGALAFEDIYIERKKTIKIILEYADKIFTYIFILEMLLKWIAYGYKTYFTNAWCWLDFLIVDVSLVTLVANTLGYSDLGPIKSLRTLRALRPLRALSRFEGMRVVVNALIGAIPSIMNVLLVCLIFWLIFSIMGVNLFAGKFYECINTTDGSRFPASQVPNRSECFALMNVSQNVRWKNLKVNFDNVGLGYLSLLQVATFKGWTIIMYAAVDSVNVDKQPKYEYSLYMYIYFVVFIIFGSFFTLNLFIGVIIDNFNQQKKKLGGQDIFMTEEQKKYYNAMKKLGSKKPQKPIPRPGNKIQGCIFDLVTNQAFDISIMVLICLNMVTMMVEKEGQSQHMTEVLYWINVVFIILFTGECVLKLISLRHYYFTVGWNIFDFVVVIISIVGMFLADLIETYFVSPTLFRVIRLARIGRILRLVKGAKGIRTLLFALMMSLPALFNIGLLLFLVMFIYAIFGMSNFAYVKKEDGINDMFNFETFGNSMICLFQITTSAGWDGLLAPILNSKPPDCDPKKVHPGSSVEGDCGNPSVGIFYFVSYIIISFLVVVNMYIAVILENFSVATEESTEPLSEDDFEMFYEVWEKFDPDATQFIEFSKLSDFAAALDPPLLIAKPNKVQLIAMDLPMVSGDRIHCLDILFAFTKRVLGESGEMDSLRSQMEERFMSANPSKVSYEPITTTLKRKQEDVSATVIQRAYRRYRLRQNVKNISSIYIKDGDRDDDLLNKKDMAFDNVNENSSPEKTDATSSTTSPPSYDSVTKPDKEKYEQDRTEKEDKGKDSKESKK

Nav1.7 [4] = target: T4, Nav1.7 (Homo sapiens, UniProt Q15858, F387A); test: whole-cell patch clamp in transfected HEK293T cells
T4 construct: gene SCN9A
T4 sequence (Q15858 whole entry F387A): as the sequence (Q15858 whole entry) above, with F387A counted along it

Nav1.7 [5] = target: T5, Nav1.7 (Homo sapiens, UniProt Q15858, S1320A); test: as above
T5 construct: gene SCN9A
T5 sequence (Q15858 whole entry S1320A): as the sequence (Q15858 whole entry) above, with S1320A counted along it

Nav1.7 [6] = target: T6, Nav1.7 (Homo sapiens, UniProt Q15858, N1459A/S1320A); test: as above
T6 construct: gene SCN9A
T6 sequence (Q15858 whole entry S1320A/N1459A): as the sequence (Q15858 whole entry) above, with S1320A, N1459A counted along it

T2 sequence (Q15858 whole entry N1459A): as the sequence (Q15858 whole entry) above, with N1459A counted along it
T1 sequence (Q15858 whole entry V383A): as the sequence (Q15858 whole entry) above, with V383A counted along it

For `C=C(C)[C@@H]1CCC(C)=C[C@H]1c1c(O)cc(CCCCC)cc1O` [CBD, Cannabidiol], the IC50 (Nav1.7 [1]) was 3.56 ± 0.58 µM, the IC50 (Nav1.7 [2]) was 2.46 ± 0.28 µM and the Kd (Nav1.7 [3]) was about 0.05 µM. It also gave an IC50 (Nav1.7 [4]) of 3.65 ± 0.78 µM, an IC50 (Nav1.7 [5]) of 3.81 ± 0.42 µM and an IC50 (Nav1.7 [6]) of 4.28 ± 0.67 µM.
